Common to all, as to assay type: cell-based
For test [1], the system named is human cervical cancer cell line HeLa. The test is described as follows: Comparison with single layer culture method using agent for inducing apoptosis. Conditions: day 4. The procedure:
This aqueous solution was sterilized at 121°C for 20 min in an autoclave. […] Each plate was cultured by being stood still in a CO2 incubator (37°C, 5% CO2). […] To the culture medium on day 4 was added an ATP reagent (150 µL) (CellTiter-Glo (registered trade mark) Luminescent Cell Viability Assay, manufactured by Promega) to give a suspension, which was stood for about 10 min at room temperature, and the luminescence intensity (RLU value) was measured by FlexStation3 (manufactured by Molecular Devices), and the number of viable cells was measured by subtracting the luminescence value of the medium alone. For WST-8 measurement, a WST-8 solution (manufactured by DOJINDO Laboratories, 15 µL) was added, the mixture was incubated at 37°C for 100 min, the absorbance at 450 nm was measured by an absorbance spectrometer (manufactured by Molecular Devices, SPECTRA MAX 190), and the number of viable cells was measured by subtracting the absorbance of the medium alone.

Test [2] has the same test system. The test is described as follows: Cell proliferation test using various anticancer drugs. Conditions: DAG 0.030% medium; for cell density: 5 days later. The procedure:
This aqueous solution was sterilized at 121°C for 20 min in an autoclave. […] The anticancer drug used was Adriamycin (manufactured by WAKO), Paclitaxel (manufactured by WAKO) or Mitomycin C (manufactured by WAKO).
Successively, this plate was cultured by being stood still in a CO2 incubator (37°C, 5% CO2) for 7 days. After culturing for 3, 5, 7 days, to the culture medium was added a WST-8 solution (manufactured by DOJINDO Laboratories, 20 µL), and the mixture was incubated at 37°C for 100 min. The absorbance at 450 nm was measured by an absorbance spectrometer (manufactured by Molecular Devices, SPECTRA MAX 190), and the number of viable cells was measured by subtracting the absorbance of the medium alone. The culture medium containing the cells after 5 days of culture was stirred with a pipette and the obtained stirred solution (20 µL) was mixed with Trypan Blue stain 0.4% (manufactured by Invitrogen, 20 µL) and the cell density was measured under a microscope.

The test system is the same in test [3]. The test is described as follows: Comparison with single layer culture method in cell proliferation test using anticancer drug. As to conditions: day 4. The procedure:
This aqueous solution was sterilized at 121°C for 20 min in an autoclave. […] Each plate was cultured by being stood still in a CO2 incubator (37°C, 5% CO2). […] The anticancer drug used was Adriamycin (manufactured by WAKO), Paclitaxel (manufactured by WAKO) or Mitomycin C (manufactured by WAKO). To the culture medium on day 4 was added an ATP reagent (150 µL) (CellTiter-Glo (registered trade mark) Luminescent Cell Viability Assay, manufactured by Promega) to give a suspension, which was stood for about 10 min at room temperature, and the luminescence intensity (RLU value) was measured by FlexStation3 (manufactured by Molecular Devices), and the number of viable cells was measured by subtracting the luminescence value of the medium alone. For WST-8 measurement, a WST-8 solution (manufactured by DOJINDO Laboratories, 15 µL) was added, the mixture was incubated at 37°C for 100 min, the absorbance at 450 nm was measured by an absorbance spectrometer (manufactured by Molecular Devices, SPECTRA MAX 190), and the number of viable cells was measured by subtracting the absorbance of the medium alone.

The mark [4] stands for this setting: agent 1 µM, deacylated gellan gum addition group (0.015%).
The mark [5] stands for this setting: agent 1 µM, single layer culture group.
Where [6] appears, read: agent 10 µM, deacylated gellan gum addition group (0.015%).
Setting [7] is: agent 10 µM, single layer culture group.
[8] abbreviates: agent 100 µM, deacylated gellan gum addition group (0.015%).
Setting [9] is: agent 100 µM, single layer culture group.
[10] abbreviates: drug 0.005 µM, deacylated gellan gum addition group (0.015%).
[11] abbreviates: drug 0.005 µM, single layer culture group.
Setting [12] is: drug 0.05 µM, deacylated gellan gum addition group (0.015%).
The mark [13] stands for this setting: drug 0.05 µM, single layer culture group.
The mark [14] stands for this setting: drug 0.5 µM, deacylated gellan gum addition group (0.015%).
The mark [15] stands for this setting: drug 0.5 µM, single layer culture group.
The mark [16] stands for this setting: agent 0.2 µM, deacylated gellan gum addition group (0.015%).
Setting [17] is: agent 0.2 µM, single layer culture group.
[18] abbreviates: agent 2 µM, deacylated gellan gum addition group (0.015%).
The mark [19] stands for this setting: agent 2 µM, single layer culture group.

Starred links: 1 amine or outer side, 2 acyl side, 3 side chain; linkers in the order of their positions; H or OH if unused. Positions of bridges follow the written chain, without caps; N, C: chain ends. Non-standard residues stand in square brackets, D forms with d. Residues, ends and D or L forms follow the SMILES beside them. Chains are numbered I, II in the order given. Actinocin(9to1) = Cc1c2oc3c(C)ccc(C(=O)[*:1])c3nc-2c(C(=O)[*:2])c(N)c1=O; NMeV = CN[C@H](C(=O)O)C(C)C; Sar = CNCC(=O)O Bounds are passed on as bounds.

In the case of `COc1cc([C@@H]2c3cc4c(cc3[C@@H](O[C@@H]3O[C@@H]5CO[C@@H](C)O[C@H]5[C@H](O)[C@H]3O)[C@H]3COC(=O)[C@H]23)OCO4)cc(OC)c1O` [Etoposide], the “% Control value of the RLU value (ATP measurement)” value (“% Control value of the RLU value” below) in test [1] (setting [4]) is 35 % Control; in test [1] (setting [5]) it was 64 % Control; in test [1] (setting [6]) it was 24 % Control; in test [1] (setting [7]), 65 % Control. Moreover, the “% Control value of the absorbance at 450 nm (WST-8 measurement)” value (shortened to “% Control value of the absorbance”) in test [1] (setting [4]) amounted to 39 % Control; in test [1] (setting [5]) it was 68 % Control; in test [1] (setting [6]), 23 % Control; in test [1] (setting [7]), 63 % Control.
In the case of `C[C@@H]1C[C@@H]([C@H](O)CC2CC(=O)NC(=O)C2)C(=O)[C@@H](C)C1` [Cycloheximide], the “% Control value of the RLU value” value in test [1] (setting [6]) is 9 % Control; in test [1] (setting [7]) it was 29 % Control; in test [1] (setting [8]), 4 % Control; in test [1] (setting [9]) it was 9 % Control. For the same molecule, the “% Control value of the absorbance” value in test [1] (setting [6]) was 4 % Control; in test [1] (setting [7]) it was 21 % Control; in test [1] (setting [8]), 1 % Control; in test [1] (setting [9]) it was 7 % Control.
For `CO[C@@]12[C@H](COC(N)=O)C3=C(C(=O)C(C)=C(N)C3=O)N1C[C@@H]1N[C@@H]12` [Mitomycin C], the cell density in test [2] (drug 0.01 µM) is given as 1.0 10^4 cells/mL; in test [2] (drug 0.1 µM), 0.4 10^4 cells/mL; in test [2] (drug 1 µM), 0.1 10^4 cells/mL. In addition, the “cell number (absorbance at 450 nm, WST-8)” value was 0.089 in test [2] (drug 0.01 µM, day 3); 0.016 in test [2] (drug 0.01 µM, day 5); < 0 in test [2] (drug 0.01 µM, day 7); 0.032 in test [2] (drug 0.1 µM, day 3); < 0 in test [2] (drug 0.1 µM, day 5); < 0 in test [2] (drug 0.1 µM, day 7). The “cell number (absorbance at 450 nm, WST-8)” value is reported as < 0 in test [2] (drug 1 µM, day 3); < 0 in test [2] (drug 1 µM, day 5); < 0 in test [2] (drug 1 µM, day 7). The “% Control value of the RLU value” value in test [3] (setting [10]) is 83 % Control; in test [3] (setting [11]) it was 99 % Control; in test [3] (setting [12]), 48 % Control; in test [3] (setting [13]), 89 % Control; in test [3] (setting [14]), 29 % Control; in test [3] (setting [15]), 86 % Control. Further, the “% Control value of the absorbance” value in test [3] (setting [10]) was determined as 94 % Control; in test [3] (setting [11]), 101 % Control; in test [3] (setting [12]), 37 % Control; in test [3] (setting [13]), 83 % Control; in test [3] (setting [14]), 12 % Control; in test [3] (setting [15]), 71 % Control.
Regarding `Cc1c2oc3c(C)ccc(C(=O)N[C@@H]4C(=O)N[C@H](C(C)C)C(=O)N5CCC[C@H]5C(=O)N(C)CC(=O)N(C)[C@@H](C(C)C)C(=O)O[C@@H]4C)c3nc-2c(C(=O)N[C@@H]2C(=O)N[C@H](C(C)C)C(=O)N3CCC[C@H]3C(=O)N(C)CC(=O)N(C)[C@@H](C(C)C)C(=O)O[C@@H]2C)c(N)c1=O` [Actinomycin D] (I: T[dV]P[Sar][NMeV] / II: T[dV]P[Sar][NMeV]; ester I:1-I:C, II:1-II:C; linker I:N-II:N via Actinocin(9to1)), the “% Control value of the RLU value” value in test [1] (setting [4]) turned out to be 4 % Control; in test [1] (setting [5]) it was 2 % Control; in test [1] (setting [6]), 6 % Control; in test [1] (setting [7]), 2 % Control. In addition, the “% Control value of the absorbance” value amounted to 3 % Control in test [1] (setting [4]), 2 % Control in test [1] (setting [5]), 12 % Control in test [1] (setting [6]) and 4 % Control in test [1] (setting [7]).
With `CC[C@@]1(O)C(=O)OCc2c1cc1n(c2=O)Cc2cc3ccccc3nc2-1` [Camptothecin], the “% Control value of the RLU value” value worked out at 27 % Control in test [1] (setting [16]), 63 % Control in test [1] (setting [17]), 11 % Control in test [1] (setting [18]) and 44 % Control in test [1] (setting [19]). The “% Control value of the absorbance” value in test [1] (setting [16]) was found to be 24 % Control; in test [1] (setting [17]), 68 % Control; in test [1] (setting [18]) it was 7 % Control; in test [1] (setting [19]), 28 % Control.
As for `C[C@@H]1C[C@H]2[C@@H]3CCC4=CC(=O)C=C[C@]4(C)[C@@]3(F)[C@@H](O)C[C@]2(C)[C@@]1(O)C(=O)CO` [Dexamethasone], the results for the “% Control value of the RLU value” value in test [1] (setting [4]), in test [1] (setting [6]) and in test [1] (setting [7]) were 232 % Control, 241 % Control and 116 % Control, respectively. Besides, the “% Control value of the absorbance” value stood at 184 % Control in test [1] (setting [4]), 89 % Control in test [1] (setting [5]), 173 % Control in test [1] (setting [6]) and 92 % Control in test [1] (setting [7]).

These data come from patent EP3409761B1, “CULTURE MEDIUM COMPOSITION, AND METHOD FOR CULTURING CELL OR TISSUE USING SAID COMPOSITION” (Nissan Chemical Corporation, priority 2012, dated 2014).
